# Assays:
# soybean = assay: Test B pre/postemergence soybean; type: in vivo, Glycine max; details: for Soybean plant response rating: scale of 0 to 10 where 0 is no effect and 10 is complete control
# Outline: (§1)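 Response is a visual 0-to-10 score relative to untreated plants, where 0 means no effect and 10 means complete control, taken twelve to sixteen days after application. Treatments went onto soil at planting and onto foliage of 1- to 4-leaf plants, using a surfactant-containing non-phytotoxic solvent.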
# giant foxtail = assay: Test B pre/postemergence giant foxtail; type: in vivo, Setaria faberii; details: for Giant foxtail plant response rating: scale of 0 to 10 where 0 is no effect and 10 is complete control
# Outline: as §1
# sugar beet = assay: Test B pre/postemergence sugar beet; type: in vivo, Beta vulgaris; details: for Sugarbeets plant response rating: scale of 0 to 10 where 0 is no effect and 10 is complete control
# Outline: as §1
# duck salad = assay: Test B flood test duck salad; type: in vivo, Heteranthera limosa
# Outline: (§2)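 Flood test on plants grown to the 2-leaf stage; treated plants kept in greenhouse twelve to sixteen days, then visually rated against controls on a 0 (no effect) to 10 (complete control) scale.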
# wild oat = assay: Test B pre/postemergence wild oat; type: in vivo, Avena fatua; details: for Wild oats plant response rating: scale of 0 to 10 where 0 is no effect and 10 is complete control
# Outline: as §1
# wheat = assay: Test B pre/postemergence wheat; type: in vivo, Triticum aestivum; details: for Wheat plant response rating: scale of 0 to 10 where 0 is no effect and 10 is complete control
# Outline: as §1
# rice = assay: Test B flood test rice; type: in vivo, Oryza sativa
# Outline: as §2
# blackgrass = assay: Test B pre/postemergence blackgrass; type: in vivo, Alopecurus myosuroides; details: for Blackgrass plant response rating: scale of 0 to 10 where 0 is no effect and 10 is complete control
# Outline: as §1
# purple nutsedge = assay: Test B pre/postemergence purple nutsedge; type: in vivo, Cyperus rotundus; details: for Nutsedge plant response rating: scale of 0 to 10 where 0 is no effect and 10 is complete control
# Outline: as §1
# bamyardgrass = assay: Test B flood test barnyardgrass; type: in vivo, Echinochloa crus-galli
# Outline: as §2
# morningglory = assay: Test B pre/postemergence morningglory; type: in vivo, Ipomoea hederacea; details: for Morningglory plant response rating: scale of 0 to 10 where 0 is no effect and 10 is complete control
# Outline: as §1
# velvetleaf = assay: Test B pre/postemergence velvetleaf; type: in vivo, Abutilon theophrasti; details: for Velvetleaf plant response rating: scale of 0 to 10 where 0 is no effect and 10 is complete control
# Outline: as §1
# bedstraw = assay: Test B pre/postemergence bedstraw; type: in vivo, Galium aparine; details: for Bedstraw plant response rating: scale of 0 to 10 where 0 is no effect and 10 is complete control
# Outline: as §1
# rape = assay: Test B pre/postemergence rape; type: in vivo, Brassica napus; details: for Rape plant response rating: scale of 0 to 10 where 0 is no effect and 10 is complete control
# Outline: as §1
# smallflower flatsedge = assay: Test B flood test smallflower flatsedge; type: in vivo, Cyperus difformis
# Outline: as §2
# pigweed = assay: Test B pre/postemergence pigweed; type: in vivo, Amaranthus retroflexus; details: for Redroot pigweed plant response rating: scale of 0 to 10 where 0 is no effect and 10 is complete control
# Outline: as §1
# [1] = Postemergence, Rate 125 g/ha, scale 0 to 10, 0 is no effect, 10 is complete control
# [2] = Postemergence, Rate 250 g/ha, scale 0 to 10, 0 is no effect, 10 is complete control
# [3] = Preemergence, Rate 62 g/ha, scale 0 to 10 (0 no effect, 10 complete control)
# [4] = Rate 500 g/ha, Postemergence, scale 0 to 10, 0 no effect, 10 complete control
# [5] = Rate 62 g/ha, flood test species, Pre-emergence, visual evaluation after twelve to sixteen days
# [6] = Rate 125 g/ha, under heading Pre-emergence, flood test species, visual evaluation after twelve to sixteen days
# [7] = Rate 250 g/ha, Pre-emergence, flood-test species, scale 0 to 10, 0 is no effect, 10 is complete control
# [8] = Rate 500 g/ha, Pre-emergence, flood test species, scale 0 to 10 (0 no effect, 10 complete control)
compound,measurement,setting,value
CCOc1nc(C(F)(F)F)c(Cn2c(=O)on(C(=O)N(c3ccc(F)cc3)C(C)C)c2=O)s1 [Compound 381],"Plant response rating, Soybean",soybean; [1],2
same,"Plant response rating, Soybean",soybean; [2],2
same,"Plant response rating, Soybean",soybean; [3],0
same,Soybean plant response rating (0 to 10 scale),"soybean; Preemergence, Rate 125 g/ha",0
same,Soybean plant response rating,"soybean; Preemergence, Rate 250 g/ha",0
same,Soybean plant response rating,"soybean; Preemergence, Rate 500 g/ha",0
same,Soybean plant response rating,"soybean; Rate 62 g/ha, Postemergence",1
same,"Plant response rating, Soybean",soybean; [4],2
same,"Plant response rating, Giant foxtail",giant foxtail; [1],0
same,"Plant response rating, Giant foxtail",giant foxtail; [2],0
same,"Plant response rating, Giant foxtail",giant foxtail; [3],0
same,Giant foxtail plant response rating (0 to 10 scale),"giant foxtail; Preemergence, Rate 125 g/ha",0
same,Giant foxtail plant response rating,"giant foxtail; Preemergence, Rate 250 g/ha",5
same,Giant foxtail plant response rating,"giant foxtail; Preemergence, Rate 500 g/ha",9
same,Giant foxtail plant response rating,"giant foxtail; Rate 62 g/ha, Postemergence",0
same,"Plant response rating, Giant foxtail",giant foxtail; [4],0
same,"Plant response rating, Sugarbeets",sugar beet; [1],0
same,"Plant response rating, Sugarbeets",sugar beet; [2],0
same,"Plant response rating, Sugarbeets",sugar beet; [3],0
same,Sugarbeets plant response rating (0 to 10 scale),"sugar beet; Preemergence, Rate 125 g/ha",0
same,Sugarbeets plant response rating,"sugar beet; Preemergence, Rate 250 g/ha",0
same,Sugarbeets plant response rating,"sugar beet; Preemergence, Rate 500 g/ha",0
same,Sugarbeets plant response rating,"sugar beet; Rate 62 g/ha, Postemergence",0
same,"Plant response rating, Sugarbeets",sugar beet; [4],0
same,"Plant response rating, Ducksalad (0 to 10 scale, 0 is no effect, 10 is complete control)",duck salad; [5],0
same,"Ducksalad plant response rating (0 to 10 scale, 0 is no effect, 10 is complete control)",duck salad; [6],0
same,Ducksalad plant response rating,duck salad; [7],0
same,Ducksalad plant response rating,duck salad; [8],0
same,"Plant response rating, Wild oats",wild oat; [1],0
same,"Plant response rating, Wild oats",wild oat; [2],0
same,"Plant response rating, Wild oats",wild oat; [3],0
same,Wild oats plant response rating (0 to 10 scale),"wild oat; Preemergence, Rate 125 g/ha",0
same,Wild oats plant response rating,"wild oat; Preemergence, Rate 250 g/ha",0
same,Wild oats plant response rating,"wild oat; Preemergence, Rate 500 g/ha",0
same,Wild oats plant response rating,"wild oat; Rate 62 g/ha, Postemergence",0
same,"Plant response rating, Wild oats",wild oat; [4],0
same,"Plant response rating, Wheat",wheat; [1],0
same,"Plant response rating, Wheat",wheat; [2],0
same,"Plant response rating, Wheat",wheat; [3],0
same,Wheat plant response rating (0 to 10 scale),"wheat; Preemergence, Rate 125 g/ha",0
same,Wheat plant response rating,"wheat; Preemergence, Rate 250 g/ha",0
same,Wheat plant response rating,"wheat; Preemergence, Rate 500 g/ha",0
same,Wheat plant response rating,"wheat; Rate 62 g/ha, Postemergence",0
same,"Plant response rating, Wheat",wheat; [4],0
same,"Plant response rating, Rice (0 to 10 scale, 0 is no effect, 10 is complete control)",rice; [5],0
same,"Rice plant response rating (0 to 10 scale, 0 is no effect, 10 is complete control)",rice; [6],0
same,Rice plant response rating,rice; [7],0
same,Rice plant response rating,rice; [8],0
same,"Plant response rating, Blackgrass",blackgrass; [1],0
same,"Plant response rating, Blackgrass",blackgrass; [2],0
same,"Plant response rating, Blackgrass",blackgrass; [3],0
same,Blackgrass plant response rating (0 to 10 scale),"blackgrass; Preemergence, Rate 125 g/ha",0
same,Blackgrass plant response rating,"blackgrass; Preemergence, Rate 250 g/ha",0
same,Blackgrass plant response rating,"blackgrass; Preemergence, Rate 500 g/ha",2
same,Blackgrass plant response rating,"blackgrass; Rate 62 g/ha, Postemergence",0
same,"Plant response rating, Blackgrass",blackgrass; [4],0
same,"Plant response rating, Nutsedge",purple nutsedge; [1],0
same,"Plant response rating, Nutsedge",purple nutsedge; [2],0
same,"Plant response rating, Nutsedge",purple nutsedge; [3],0
same,Nutsedge plant response rating (0 to 10 scale),"purple nutsedge; Preemergence, Rate 125 g/ha",0
same,Nutsedge plant response rating,"purple nutsedge; Preemergence, Rate 250 g/ha",0
same,Nutsedge plant response rating,"purple nutsedge; Preemergence, Rate 500 g/ha",0
same,Nutsedge plant response rating,"purple nutsedge; Rate 62 g/ha, Postemergence",0
same,"Plant response rating, Nutsedge",purple nutsedge; [4],0
same,"Plant response rating, Barnyardgrass (0 to 10 scale, 0 is no effect, 10 is complete control)",bamyardgrass; [5],0
same,"Barnyardgrass plant response rating (0 to 10 scale, 0 is no effect, 10 is complete control)",bamyardgrass; [6],0
same,Barnyardgrass plant response rating,bamyardgrass; [7],0
same,Barnyardgrass plant response rating,bamyardgrass; [8],0
same,"Plant response rating, Morningglory",morningglory; [1],2
same,"Plant response rating, Morningglory",morningglory; [2],2
same,"Plant response rating, Morningglory",morningglory; [3],0
same,Morningglory plant response rating (0 to 10 scale),"morningglory; Preemergence, Rate 125 g/ha",0
same,Morningglory plant response rating,"morningglory; Preemergence, Rate 250 g/ha",0
same,Morningglory plant response rating,"morningglory; Preemergence, Rate 500 g/ha",0
same,Morningglory plant response rating,"morningglory; Rate 62 g/ha, Postemergence",2
same,"Plant response rating, Morningglory",morningglory; [4],7
same,"Plant response rating, Velvetleaf",velvetleaf; [1],0
same,"Plant response rating, Velvetleaf",velvetleaf; [2],0
same,"Plant response rating, Velvetleaf",velvetleaf; [3],0
same,Velvetleaf plant response rating (0 to 10 scale),"velvetleaf; Preemergence, Rate 125 g/ha",0
same,Velvetleaf plant response rating,"velvetleaf; Preemergence, Rate 250 g/ha",0
same,Velvetleaf plant response rating,"velvetleaf; Preemergence, Rate 500 g/ha",0
same,Velvetleaf plant response rating,"velvetleaf; Rate 62 g/ha, Postemergence",0
same,"Plant response rating, Velvetleaf",velvetleaf; [4],0
same,"Plant response rating, Bedstraw",bedstraw; [1],0
same,"Plant response rating, Bedstraw",bedstraw; [2],0
same,"Plant response rating, Bedstraw",bedstraw; [3],0
same,Bedstraw plant response rating (0 to 10 scale),"bedstraw; Preemergence, Rate 125 g/ha",0
same,Bedstraw plant response rating,"bedstraw; Preemergence, Rate 250 g/ha",0
same,Bedstraw plant response rating,"bedstraw; Preemergence, Rate 500 g/ha",0
same,Bedstraw plant response rating,"bedstraw; Rate 62 g/ha, Postemergence",0
same,"Plant response rating, Bedstraw",bedstraw; [4],0
same,"Plant response rating, Rape",rape; [1],0
same,"Plant response rating, Rape",rape; [2],0
same,"Plant response rating, Rape",rape; [3],0
same,Rape plant response rating (0 to 10 scale),"rape; Preemergence, Rate 125 g/ha",0
same,Rape plant response rating,"rape; Preemergence, Rate 250 g/ha",0
same,Rape plant response rating,"rape; Preemergence, Rate 500 g/ha",0
same,Rape plant response rating,"rape; Rate 62 g/ha, Postemergence",0
same,"Plant response rating, Rape",rape; [4],6
same,"Plant response rating, S. Flatsedge (0 to 10 scale, 0 is no effect, 10 is complete control)",smallflower flatsedge; [5],0
same,"S. Flatsedge plant response rating (0 to 10 scale, 0 is no effect, 10 is complete control)",smallflower flatsedge; [6],0
same,S. Flatsedge plant response rating,smallflower flatsedge; [7],0
same,S. Flatsedge plant response rating,smallflower flatsedge; [8],0
same,"Plant response rating, Redroot pigweed",pigweed; [1],0
same,"Plant response rating, Redroot pigweed",pigweed; [2],0
same,"Plant response rating, Redroot pigweed",pigweed; [3],0
same,Redroot pigweed plant response rating (0 to 10 scale),"pigweed; Preemergence, Rate 125 g/ha",0
same,Redroot pigweed plant response rating,"pigweed; Preemergence, Rate 250 g/ha",0
same,Redroot pigweed plant response rating,"pigweed; Preemergence, Rate 500 g/ha",0
same,Redroot pigweed plant response rating,"pigweed; Rate 62 g/ha, Postemergence",0
same,"Plant response rating, Redroot pigweed",pigweed; [4],2
